Test results reported in patent US10093678B2, “Azaspiro derivatives as TRPM8 antagonists” (RaQualia Pharma Inc., priority 2014, dated 2018).

Each compound was assayed against T1, human TRPM8 (Homo sapiens, UniProt Q7Z2W7) (assay: Menthol-induced Ca2+ influx in HEK293 cells stably expressing human TRPM8). Details: 30 microM menthol-induced Ca2+ influx, read-out: IC50 against TRPM8.
T1 construct: expressed in transfected cells; host or cells: HEK293
Assay type: cell-based
Procedure, shortened: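 HEK293 cells stably expressing human TRPM8 were loaded with Fluo4-AM for 1 h at room temperature, preincubated 5 min with compound, then challenged with 30 microM menthol. Calcium rise was read by FDSS imaging. IC50 came from 11-point curves using duplicate-well means.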

T1 sequence (Q7Z2W7 whole entry): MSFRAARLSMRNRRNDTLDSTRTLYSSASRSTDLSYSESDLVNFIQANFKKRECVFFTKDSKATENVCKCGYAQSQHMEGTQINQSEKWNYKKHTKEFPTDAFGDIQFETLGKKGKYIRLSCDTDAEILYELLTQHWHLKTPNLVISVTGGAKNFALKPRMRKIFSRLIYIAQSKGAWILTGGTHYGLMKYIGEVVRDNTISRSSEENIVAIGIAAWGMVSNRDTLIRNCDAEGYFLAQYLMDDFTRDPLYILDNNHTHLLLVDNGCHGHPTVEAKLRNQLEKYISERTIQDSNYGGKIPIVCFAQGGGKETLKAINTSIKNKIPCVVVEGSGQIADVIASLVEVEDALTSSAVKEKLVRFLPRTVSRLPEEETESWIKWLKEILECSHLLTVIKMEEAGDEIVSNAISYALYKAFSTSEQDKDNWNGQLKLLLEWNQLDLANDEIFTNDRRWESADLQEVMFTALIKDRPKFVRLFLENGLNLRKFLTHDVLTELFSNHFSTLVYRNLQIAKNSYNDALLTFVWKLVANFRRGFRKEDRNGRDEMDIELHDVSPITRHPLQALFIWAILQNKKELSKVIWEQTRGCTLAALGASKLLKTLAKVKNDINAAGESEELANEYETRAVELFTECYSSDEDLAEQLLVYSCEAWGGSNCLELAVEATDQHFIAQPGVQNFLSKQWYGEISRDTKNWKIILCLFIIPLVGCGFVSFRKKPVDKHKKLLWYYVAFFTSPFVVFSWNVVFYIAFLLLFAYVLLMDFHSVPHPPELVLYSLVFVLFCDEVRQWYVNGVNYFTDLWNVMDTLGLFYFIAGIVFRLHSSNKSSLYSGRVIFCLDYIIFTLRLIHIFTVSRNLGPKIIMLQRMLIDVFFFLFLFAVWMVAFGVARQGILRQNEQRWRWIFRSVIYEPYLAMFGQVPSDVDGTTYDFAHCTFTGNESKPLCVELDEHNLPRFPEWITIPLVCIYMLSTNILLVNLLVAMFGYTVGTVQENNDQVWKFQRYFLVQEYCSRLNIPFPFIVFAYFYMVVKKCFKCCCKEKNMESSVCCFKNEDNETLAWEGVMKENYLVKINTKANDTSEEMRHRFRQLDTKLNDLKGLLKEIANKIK

Row | SMILES | IC50 [nM]
1 | O=C(CN1C(=O)NC2(CCC(F)(F)CC2)C1=O)c1ccc(-c2ncnc3ncccc23)cc1 [Example 6-59] | < 500
2 | O=C(CN1C(=O)NC2(CCC(F)(F)CC2)C1=O)c1ccc(-c2ncc3ccccn23)cc1 [Example 6-63] | < 100
3 | O=C(CN1C(=O)NC2(CCC(F)(F)CC2)C1=O)c1ccc(-c2ncn3ccccc23)cc1 [Example 6-64] | < 500
4 | O=C(CN1C(=O)NC2(CCC(F)(F)CC2)C1=O)c1ccc(-c2cnn3ccccc23)cc1 [Example 6-67] | < 100
5 | O=C(CN1C(=O)NC2(CCC(F)(F)CC2)C1=O)c1ccc(-c2cnn3cccnc23)cc1 [Example 6-68] | < 100
6 | Cc1c(N)cncc1-c1ccc(C(=O)CN2C(=O)NC3(CCC(F)(F)CC3)C2=O)cc1 [Example 6-76] | < 100
7 | Cc1ccc(C)c(-c2ccc(C(=O)CN3C(=O)NC4(CCC(F)(F)CC4)C3=O)cc2)c1 [Example 6-78] | < 500
8 | Nc1cccnc1-c1ccc(C(=O)CN2C(=O)NC3(CCC(F)(F)CC3)C2=O)cc1 [Example 6-80] | < 500
9 | O=C(CN1C(=O)NC2(CCC(F)(F)CC2)C1=O)c1ccc(-c2cnc3ccccn23)cc1 [Example 6-81] | < 100
10 | Cc1cccnc1-c1ccc(C(=O)CN2C(=O)NC3(CCC(F)(F)CC3)C2=O)cc1 [Example 6-82] | < 500
11 | COc1cccnc1-c1ccc(C(=O)CN2C(=O)NC3(CCC(F)(F)CC3)C2=O)cc1 [Example 6-84] | < 100
12 | O=C(CN1C(=O)NC2(CCC(F)(F)CC2)C1=O)c1ccc(-c2nccn3ccnc23)cc1 [Example 6-85] | < 500
13 | COc1cncc(-c2ccc(C(=O)CN3C(=O)NC4(CCC(F)(F)CC4)C3=O)cc2)c1 [Example 6-90] | < 500
14 | Cc1ccc(C#N)c(-c2ccc(C(=O)CN3C(=O)NC4(CCC(F)(F)CC4)C3=O)cc2)n1 [Example 6-92] | < 100
15 | O=C(CN1C(=O)NC2(CCC(F)(F)CC2)C1=O)c1ccc(-c2nccs2)cc1 [Example 6-95] | < 500
16 | O=C(CN1C(=O)NC2(CCC(F)(F)CC2)C1=O)c1ccc(-c2ccc3ccncc3c2)cc1 [Example 6-96] | < 500
17 | COc1nccnc1-c1ccc(C(=O)CN2C(=O)NC3(CCC(F)(F)CC3)C2=O)cc1 [Example 6-97] | < 100
18 | N#Cc1cnccc1-c1ccc(C(=O)CN2C(=O)NC3(CCC(F)(F)CC3)C2=O)cc1 [Example 6-98] | < 100
19 | NC(=O)c1ccccc1-c1ccc(C(=O)CN2C(=O)NC3(CCC(F)(F)CC3)C2=O)cc1 [Example 6-99] | < 500
20 | O=C(CN1C(=O)NC2(CCC(F)(F)CC2)C1=O)c1ccc(-c2cnccn2)cc1 [Example 6-100] | < 500
21 | O=C(CN1C(=O)NC2(CCC(F)(F)CC2)C1=O)c1ccc(-c2ccccc2CN2CCCC2)cc1 [Example 6-104] | < 500
22 | N#CCc1ccccc1-c1ccc(C(=O)CN2C(=O)NC3(CCC(F)(F)CC3)C2=O)cc1 [Example 6-108] | < 100
23 | COCc1ccccc1-c1ccc(C(=O)CN2C(=O)NC3(CCC(F)(F)CC3)C2=O)cc1 [Example 6-114] | < 100

Row | SMILES | IC50 [nM]
24 | N#Cc1ccccc1Cc1ccc(C(=O)CN2C(=O)NC3(CCC(F)(F)CC3)C2=O)cc1 [Example 6-120] | < 500
25 | Cc1ccsc1-c1ccc(C(=O)CN2C(=O)NC3(CCCCC3)C2=O)cc1 [Example 7-3] | < 100
26 | N#Cc1cccc(-c2ccc(C(=O)CN3C(=O)NC4(CCCCC4)C3=O)cc2)n1 [Example 7-5] | < 100
27 | O=C(CN1C(=O)NC2(CCCCC2)C1=O)c1ccc(-c2cnccc2CO)cc1 [Example 7-9] | < 100
28 | O=C(CN1C(=O)NC2(CCCCC2)C1=O)c1ccc(-c2cccnc2CO)cc1 [Example 7-11] | < 100
29 | N#Cc1cccnc1-c1ccc(C(=O)CN2C(=O)NC3(CCCCC3)C2=O)cc1 [Example 7-12] | < 100
30 | Cc1nccnc1-c1ccc(C(=O)CN2C(=O)NC3(CCCCC3)C2=O)cc1 [Example 7-14] | < 100
31 | N#Cc1nccnc1-c1ccc(C(=O)CN2CC3(CCC(F)(F)CC3)OC2=O)cc1 [Example 7-15] | < 500
32 | Cc1cnc(C)c(-c2ccc(C(=O)CN3CC4(CCC(F)(F)CC4)OC3=O)cc2)n1 [Example 7-17] | < 500
33 | O=C(CN1CC2(CCC(F)(F)CC2)OC1=O)c1ccc(-c2cccnc2CO)cc1 [Example 7-18] | < 500
34 | Cc1nccnc1-c1ccc(C(=O)CN2CC3(CCC(F)(F)CC3)OC2=O)cc1 [Example 7-19] | < 500
35 | N#Cc1ncccc1-c1ccc(C(=O)CN2CC3(CCC(F)(F)CC3)OC2=O)cc1 [Example 7-20] | < 500
36 | Cc1ccnnc1-c1ccc(C(=O)CN2C(=O)OC3(CCC(F)(F)CC3)C2=O)cc1 [Example 7-21] | < 100
37 | O=C(CN1C(=O)OC2(CCC(F)(F)CC2)C1=O)c1ccc(-c2nccc3ccncc23)cc1 [Example 7-22] | < 10
38 | Cc1ccnnc1-c1ccc(C(=O)CN2C(=O)NC3(CCCCC3)C2=O)cc1 [Example 7-23] | < 500
39 | N#Cc1nccnc1-c1ccc(C(=O)CN2C(=O)NC3(CCC(F)(F)CC3)C2=O)cc1F [Example 8-1] | < 100
40 | O=C(CN1C(=O)NC2(CCC(F)(F)CC2)C1=O)c1ccc(-c2cnccc2CO)c(F)c1 [Example 8-2] | < 100
41 | Cc1nccnc1-c1ccc(C(=O)CN2C(=O)NC3(CCC(F)(F)CC3)C2=O)cc1F [Example 8-3] | < 100
42 | N#Cc1ncccc1-c1ccc(C(=O)CN2C(=O)NC3(CCC(F)(F)CC3)C2=O)cc1F [Example 8-4] | < 100
43 | O=C(CN1C(=O)NC2(CCC(F)(F)CC2)C1=O)c1ccc(-c2cccnc2CO)c(F)c1 [Example 8-5] | < 100
44 | Cc1ccnnc1-c1ccc(C(=O)CN2C(=O)NC3(CCC(F)(F)CC3)C2=O)c(F)c1 [Example 8-7] | < 100
45 | N#Cc1nccnc1-c1ccc(C(=O)CN2C(=O)NC3(CCC(F)(F)CC3)C2=O)c(F)c1 [Example 8-8] | < 100
46 | Cc1ccncc1-c1ccc(C(=O)CN2C(=O)NC3(CCCCC3)C2=O)cn1 [Example 9-1] | < 10

The next lines start with the values.

Row | IC50 [nM] | SMILES
47 | < 100 | NCc1ccncc1-c1ccc(C(=O)CN2C(=O)NC3(CCC(F)(F)CC3)C2=O)cc1 [Example 6-58, 3-(2-(4-(4-(aminomethyl)pyridin-3-yl)phenyl)-2-oxoethyl)-8,8-difluoro-1,3-diazaspiro[4.5]decane-2,4-dione]
48 | < 500 | O=C(CN1C(=O)NC2(CCC(F)(F)CC2)C1=O)c1ccc(-c2nccc3cn[nH]c23)cc1 [Example 6-62]
49 | < 500 | Cc1nc2c(-c3ccc(C(=O)CN4C(=O)NC5(CCC(F)(F)CC5)C4=O)cc3)cccc2[nH]1 [Example 6-65]
50 | < 500 | Cn1cc2c(-c3ccc(C(=O)CN4C(=O)NC5(CCC(F)(F)CC5)C4=O)cc3)cccc2n1 [Example 6-69]
51 | < 500 | O=C(CN1C(=O)NC2(CCC(F)(F)CC2)C1=O)c1ccc(-c2cccc3c2CCN3)cc1 [Example 6-72]
52 | < 100 | N#Cc1cccnc1-c1ccc(C(=O)CN2C(=O)NC3(CCC(F)(F)CC3)C2=O)cc1 [Example 6-87]
53 | < 500 | N#Cc1cncnc1-c1ccc(C(=O)CN2C(=O)NC3(CCC(F)(F)CC3)C2=O)cc1 [Example 6-93]
54 | < 500 | CC(=O)c1ccccc1-c1ccc(C(=O)CN2C(=O)NC3(CCC(F)(F)CC3)C2=O)cc1 [Example 6-102]
55 | < 100 | O=C(CN1C(=O)NC2(CCC(F)(F)CC2)C1=O)c1ccc(-c2ccccc2CCO)cc1 [Example 6-106]
56 | < 500 | NC(=O)c1cccc(-c2ccc(C(=O)CN3C(=O)NC4(CCC(F)(F)CC4)C3=O)cc2)c1 [Example 6-110]
57 | < 500 | Nc1cnccc1-c1ccc(C(=O)CN2C(=O)NC3(CCC(F)(F)CC3)C2=O)cc1 [Example 6-113]
58 | < 100 | O=C(CN1C(=O)NC2(CCC(F)(F)CC2)C1=O)c1ccc(-c2cnc3cccnn23)cc1 [Example 6-116]
59 | < 500 | Nc1nccnc1-c1ccc(C(=O)CN2C(=O)NC3(CCC(F)(F)CC3)C2=O)cc1 [Example 6-117]
60 | < 500 | O=C(CN1C(=O)NC2(CCC(F)(F)CC2)C1=O)c1ccc(Cc2ccccn2)cc1 [Example 6-119]
61 | < 100 | O=C(CN1C(=O)NC2(CCC(F)(F)CC2)C1=O)c1ccc(-c2ccncc2Cl)cc1 [Example 6-122]
62 | < 10 | Cc1ncccc1-c1ccc(C(=O)CN2C(=O)NC3(CCCCC3)C2=O)cc1 [Example 7-1]
63 | < 100 | Cc1ccncc1-c1ccc(C(=O)CN2C(=O)NC3(CCCCC3)C2=O)cc1 [Example 7-2]
64 | < 100 | Cc1cnc(C)c(-c2ccc(C(=O)CN3C(=O)NC4(CCCCC4)C3=O)cc2)n1 [Example 7-4]
65 | < 100 | Cn1nccc1-c1ccc(C(=O)CN2C(=O)NC3(CCCCC3)C2=O)cc1 [Example 7-6]
66 | < 100 | O=C(CN1C(=O)NC2(CCCCC2)C1=O)c1ccc(-c2ncccc2CO)cc1 [Example 7-7]
67 | < 100 | N#Cc1ncccc1-c1ccc(C(=O)CN2C(=O)NC3(CCCCC3)C2=O)cc1 [Example 7-8]
68 | < 100 | O=C(CN1C(=O)NC2(CCCCC2)C1=O)c1ccc(-c2nccnc2CO)cc1 [Example 7-10]
69 | < 100 | Nc1ncccc1-c1ccc(C(=O)CN2C(=O)NC3(CCCCC3)C2=O)cc1 [Example 7-13]
70 | < 500 | O=C(CN1CC2(CCC(F)(F)CC2)OC1=O)c1ccc(-c2cnccc2CO)cc1 [Example 7-16]
71 | < 100 | O=C(CN1C(=O)OC2(CCC(F)(F)CC2)C1=O)c1ccc(-c2ccccn2)cc1 [Example 7-24]
72 | < 100 | N#Cc1cccc(-c2ccc(C(=O)CN3C(=O)OC4(CCC(F)(F)CC4)C3=O)cc2)n1 [Example 7-25]
73 | < 100 | O=C(CN1C(=O)OC2(CCC(F)(F)CC2)C1=O)c1ccc(-c2ncccn2)cc1 [Example 7-26]
74 | < 500 | Nc1ccnnc1-c1ccc(C(=O)CN2C(=O)NC3(CCC(F)(F)CC3)C2=O)cc1F [Example 8-6]
75 | < 100 | O=C(CN1C(=O)NC2(CCC(F)(F)CC2)C1=O)c1ccc(-c2nccnc2CO)cc1F [Example 8-9]
76 | < 10 | Cc1ccccc1-c1ccc(C(=O)CN2C(=O)NC3(CCCCC3)C2=O)cn1 [Example 9-2]
